Legend:
p110γ = molecular target: T1, p110γ (Homo sapiens, UniProt P48736); test: Transcreener KINASE Assay, kinase inhibition of p110γ; type: biochemical; details: for IC50: read-out: PI3Kγ IC50
T1 construct: purchased Invitrogen
Procedure: PI3K kinases including p110α/p85α, p110δ/p85α and p110γ are purchased from Invitrogen, and p110β/p85α is from Millipore. Primary screening data and IC50 values are measured using Transcreener™ KINASE Assay (Bellbrook, Catalog #3003-10K). […] It is a universal, homogenous, high throughput screening (HTS) technology using a far-red, competitive fluorescence polarization immunoassay based on the detection of ADP to monitor the activity of enzymes that catalyze group transfer reactions. Briefly, the Transcreener KINASE Assay is designed as a simple two-part, endpoint assay. […] The plate is sealed and incubated for 80 min at room temperature. Next, 25 ul ADP detection mix is added per well. The plate is sealed again and incubated for 60 min at room temperature, and then measure fluorescence polarization by Tecan Infinite F500 Reader. Data is analyzed and IC50s are generated using the add-in software for Microsoft Excel, Xlfit™ (version 2.0).

p110δ/p85α = molecular target: T2, p110δ/p85α (Homo sapiens, UniProt O00329); test: Transcreener KINASE Assay, kinase inhibition of p110δ/p85α; type: biochemical; details: for IC50: read-out: PI3Kδ IC50
T2 construct: purchased Invitrogen
T2 sequence (O00329 whole entry, species assumed): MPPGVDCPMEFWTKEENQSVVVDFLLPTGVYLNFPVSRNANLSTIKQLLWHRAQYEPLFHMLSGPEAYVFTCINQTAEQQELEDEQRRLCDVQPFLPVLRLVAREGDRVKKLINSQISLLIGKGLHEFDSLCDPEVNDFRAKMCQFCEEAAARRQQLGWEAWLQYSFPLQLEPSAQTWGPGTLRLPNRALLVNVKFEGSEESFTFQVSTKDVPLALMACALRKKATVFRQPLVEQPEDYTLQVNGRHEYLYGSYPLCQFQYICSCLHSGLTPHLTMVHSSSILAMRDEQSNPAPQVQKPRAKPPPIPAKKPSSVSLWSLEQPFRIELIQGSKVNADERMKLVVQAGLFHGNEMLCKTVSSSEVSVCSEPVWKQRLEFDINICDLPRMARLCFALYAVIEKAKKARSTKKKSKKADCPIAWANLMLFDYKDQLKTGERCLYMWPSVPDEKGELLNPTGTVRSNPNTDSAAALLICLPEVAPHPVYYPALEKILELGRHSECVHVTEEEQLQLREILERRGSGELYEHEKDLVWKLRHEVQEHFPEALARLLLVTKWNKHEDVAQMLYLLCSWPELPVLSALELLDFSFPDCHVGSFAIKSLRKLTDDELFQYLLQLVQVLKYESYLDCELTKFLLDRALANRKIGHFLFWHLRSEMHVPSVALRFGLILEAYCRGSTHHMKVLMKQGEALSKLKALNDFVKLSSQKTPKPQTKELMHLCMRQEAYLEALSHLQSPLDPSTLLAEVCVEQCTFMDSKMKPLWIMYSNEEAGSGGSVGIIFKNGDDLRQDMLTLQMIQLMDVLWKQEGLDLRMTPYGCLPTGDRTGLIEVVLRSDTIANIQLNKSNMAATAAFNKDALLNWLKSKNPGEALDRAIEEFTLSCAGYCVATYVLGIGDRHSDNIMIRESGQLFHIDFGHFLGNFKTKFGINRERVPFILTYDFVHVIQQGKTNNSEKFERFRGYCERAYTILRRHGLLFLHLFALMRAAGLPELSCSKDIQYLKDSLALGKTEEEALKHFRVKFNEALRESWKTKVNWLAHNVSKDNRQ
T2 sequence (P27986 whole entry partner, species assumed): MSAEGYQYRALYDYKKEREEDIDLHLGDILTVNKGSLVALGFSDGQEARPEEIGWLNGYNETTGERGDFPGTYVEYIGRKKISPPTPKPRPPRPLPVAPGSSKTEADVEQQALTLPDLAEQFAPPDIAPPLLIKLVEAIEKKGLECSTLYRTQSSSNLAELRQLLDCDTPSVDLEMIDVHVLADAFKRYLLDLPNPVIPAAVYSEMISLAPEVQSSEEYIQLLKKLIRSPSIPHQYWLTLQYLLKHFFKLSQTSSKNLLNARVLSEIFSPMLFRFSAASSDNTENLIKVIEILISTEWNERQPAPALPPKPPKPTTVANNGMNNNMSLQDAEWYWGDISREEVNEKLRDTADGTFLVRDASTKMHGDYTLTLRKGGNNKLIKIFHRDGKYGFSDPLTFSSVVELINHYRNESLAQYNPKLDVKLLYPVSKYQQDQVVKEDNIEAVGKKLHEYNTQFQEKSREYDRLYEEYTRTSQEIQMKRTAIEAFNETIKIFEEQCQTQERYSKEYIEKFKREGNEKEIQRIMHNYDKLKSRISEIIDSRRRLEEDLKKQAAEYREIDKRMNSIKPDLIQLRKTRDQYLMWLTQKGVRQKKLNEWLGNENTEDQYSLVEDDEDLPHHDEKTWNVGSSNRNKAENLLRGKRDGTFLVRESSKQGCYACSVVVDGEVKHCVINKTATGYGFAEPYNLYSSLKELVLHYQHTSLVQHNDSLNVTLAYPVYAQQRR
Procedure: (§1) PI3K kinases including p110α/p85α, p110δ/p85α and p110γ are purchased from Invitrogen, and p110β/p85α is from Millipore.
(§2) Primary screening data and IC50 values are measured using Transcreener™ KINASE Assay (Bellbrook, Catalog #3003-10K). […] It is a universal, homogenous, high throughput screening (HTS) technology using a far-red, competitive fluorescence polarization immunoassay based on the detection of ADP to monitor the activity of enzymes that catalyze group transfer reactions. Briefly, the Transcreener KINASE Assay is designed as a simple two-part, endpoint assay.
(§3) In the first step, the 25 ul kinase reaction is performed by preparing a reaction mixture containing 5 ul test compound (2% DMSO final concentration), 10 ul kinase, buffer (50 mM HEPES, 100 mM NaCl, 1 mM EGTA, 0.03% CHAPS, 3 mM MgCl2, and freshly supplemented 1 mM DTT), and 10 ul 30 uM PIP2/10 uM ATP. The plate is sealed and incubated for 80 min at room temperature. Next, 25 ul ADP detection mix is added per well. The plate is sealed again and incubated for 60 min at room temperature, and then measure fluorescence polarization by Tecan Infinite F500 Reader.
(§4) Data is analyzed and IC50s are generated using the add-in software for Microsoft Excel, Xlfit™ (version 2.0). IH %=(ADP amount under 2% DMSO-ADP amount under test compound)/ADP amount under 2% DMSO.

p110β/p85α = molecular target: T3, p110β/p85α (Homo sapiens, UniProt P42338); test: Transcreener KINASE Assay, kinase inhibition of p110β/p85α; type: biochemical; details: for IC50: read-out: PI3Kβ IC50
T3 construct: purchased Millipore
T3 sequence (P42338 whole entry, species assumed): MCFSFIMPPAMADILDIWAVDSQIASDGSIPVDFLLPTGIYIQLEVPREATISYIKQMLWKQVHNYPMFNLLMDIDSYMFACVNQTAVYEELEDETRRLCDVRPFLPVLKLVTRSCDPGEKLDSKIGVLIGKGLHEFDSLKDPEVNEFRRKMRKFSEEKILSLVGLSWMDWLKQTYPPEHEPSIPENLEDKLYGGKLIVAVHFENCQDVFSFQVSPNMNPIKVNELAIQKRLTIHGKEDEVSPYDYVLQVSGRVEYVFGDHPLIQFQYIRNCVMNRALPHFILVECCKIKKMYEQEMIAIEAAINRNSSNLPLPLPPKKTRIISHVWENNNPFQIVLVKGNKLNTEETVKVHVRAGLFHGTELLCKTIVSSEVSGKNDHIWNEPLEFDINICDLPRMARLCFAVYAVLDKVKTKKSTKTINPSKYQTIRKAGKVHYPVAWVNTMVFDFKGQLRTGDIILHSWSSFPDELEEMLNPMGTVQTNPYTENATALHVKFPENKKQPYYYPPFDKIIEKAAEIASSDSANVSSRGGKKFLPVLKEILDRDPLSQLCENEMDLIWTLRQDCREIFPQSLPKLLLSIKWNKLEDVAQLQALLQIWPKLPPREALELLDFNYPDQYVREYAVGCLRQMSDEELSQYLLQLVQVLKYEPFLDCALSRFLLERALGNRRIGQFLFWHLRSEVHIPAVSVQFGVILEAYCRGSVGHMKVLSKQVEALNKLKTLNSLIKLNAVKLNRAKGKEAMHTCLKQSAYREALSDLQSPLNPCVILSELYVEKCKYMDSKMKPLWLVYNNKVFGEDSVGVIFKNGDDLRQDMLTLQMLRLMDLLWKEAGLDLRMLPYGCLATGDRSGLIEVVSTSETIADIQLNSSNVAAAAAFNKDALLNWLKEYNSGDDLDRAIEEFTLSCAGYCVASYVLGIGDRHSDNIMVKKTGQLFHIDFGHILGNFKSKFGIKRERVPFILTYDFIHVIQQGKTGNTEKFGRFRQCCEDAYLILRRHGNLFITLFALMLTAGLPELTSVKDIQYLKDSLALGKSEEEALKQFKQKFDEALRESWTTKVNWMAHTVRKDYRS
T3 sequence (P27986 whole entry partner, species assumed): as the sequence (P27986 whole entry partner, species assumed) above
Procedure: as §1, §2, §3, §4

PI3Kγ = molecular target: T4, PI3Kγ (Mus musculus, UniProt Q9JHG7); test: Acumen Assay - Raw264.7 p-AKT Assay (C5a stimulated); type: cell-based; details: Raw264.7 macrophage cells, compound 30 min, 10 nM C5a 5 min, p-AKT (Ser473) readout; read-out: PI3Kγ cell-C5a Raw264.7 IC50
T4 construct: endogenous in cells; host or cells: Raw264.7 macrophage cells
T4 sequence (Q9JHG7 whole entry): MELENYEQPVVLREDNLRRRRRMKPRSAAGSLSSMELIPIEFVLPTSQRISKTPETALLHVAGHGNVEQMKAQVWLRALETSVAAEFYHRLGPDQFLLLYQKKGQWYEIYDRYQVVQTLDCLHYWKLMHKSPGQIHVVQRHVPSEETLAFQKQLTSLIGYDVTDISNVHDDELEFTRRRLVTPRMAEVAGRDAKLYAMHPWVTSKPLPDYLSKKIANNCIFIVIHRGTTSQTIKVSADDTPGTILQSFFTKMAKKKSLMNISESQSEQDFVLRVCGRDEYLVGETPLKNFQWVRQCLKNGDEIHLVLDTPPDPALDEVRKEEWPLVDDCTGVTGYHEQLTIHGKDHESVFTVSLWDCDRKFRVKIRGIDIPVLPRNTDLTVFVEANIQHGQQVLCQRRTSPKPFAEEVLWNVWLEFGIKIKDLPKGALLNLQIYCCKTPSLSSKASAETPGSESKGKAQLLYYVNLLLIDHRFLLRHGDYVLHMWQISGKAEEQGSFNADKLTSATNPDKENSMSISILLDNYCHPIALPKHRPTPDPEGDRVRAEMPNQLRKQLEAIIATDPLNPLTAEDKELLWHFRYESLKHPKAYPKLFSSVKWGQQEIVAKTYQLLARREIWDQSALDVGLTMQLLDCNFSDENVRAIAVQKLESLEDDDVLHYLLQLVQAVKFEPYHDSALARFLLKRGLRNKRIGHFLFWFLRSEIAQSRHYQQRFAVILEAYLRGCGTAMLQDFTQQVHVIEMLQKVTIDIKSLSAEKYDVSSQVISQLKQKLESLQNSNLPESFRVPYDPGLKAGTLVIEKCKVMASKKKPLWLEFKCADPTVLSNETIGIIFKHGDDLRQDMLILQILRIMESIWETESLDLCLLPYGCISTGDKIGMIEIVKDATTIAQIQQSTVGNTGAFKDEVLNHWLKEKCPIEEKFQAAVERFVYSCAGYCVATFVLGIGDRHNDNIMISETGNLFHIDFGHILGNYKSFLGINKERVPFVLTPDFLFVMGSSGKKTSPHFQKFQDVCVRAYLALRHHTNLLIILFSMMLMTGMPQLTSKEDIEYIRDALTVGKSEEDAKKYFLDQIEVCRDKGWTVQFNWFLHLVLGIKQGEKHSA
Procedure: Acumen® eX3 (A Mμltilaser Microplate Cytometer For Enhanced High Content Screening): TTP LabTech
3×10^4 Raw264.7 macrophage cells were seeded into 96-well plates with DMEM+10% heat-inactivated FBS at […], 90 ul/well, overnight. After starvation for 3 hr at 37° C. under 5% CO2, Raw264.7 cells were treated with 10 ul/well various concentrations of compound or 0.5% DMSO for 30 min, and then stimulated with 10 ul/well 10 nM C5a for 5 min.
1.) Cells were fixed 110 μL of 4% pre-warmed Paraformaldehyde (2% final), incubate for 45 min at room temperature.
2.) Remove paraformaldehyde solution. Add 100 μL of ice-cold 0.1% Triton X-100 in PBS and leave at 4° C. for 30 min.
3.) Wash once in 100 μL PBS.
4.) Incubate with 100 μL blocking buffer (1% BSA, in PBS) for 2 hours at room temperature.
5.) Wash once for 5 min with 100 ul PBS.
6.) Incubate with 40 μL 1:200 dilution of phospho AKT (Ser473) rabbit antibody in antibody dilution buffer (0.1% BSA, in PBS) overnight at 4° C.
7.) Wash for 3 times for 10 min with 100 ul PBS.
8.) Incubate for 90 min at room temperature with 50 μL of goat anti-rabbit Alex488 antibody at a 1:1,000 dilution in antibody dilution buffer (0.1% BSA, in PBS). Cover plate in foil to keep out of light.
9.) Wash for 3 times for 10 min with 100 μL PBS.
10.) Add 50 μL of 1.5 μM Propidium Iodide solution to each well to determine cell number at a 1:1,000 dilution in PBS (stock: 1.5 mM).
11.) Incubate at room temperature for 30 min.
12.) Seal the plate with a black cover-seal (supplied with plate).
13.) Load the plate into the Acumen Explorer and scan with the appropriate instrument settings.

T1 sequence (P48736 whole entry, species assumed): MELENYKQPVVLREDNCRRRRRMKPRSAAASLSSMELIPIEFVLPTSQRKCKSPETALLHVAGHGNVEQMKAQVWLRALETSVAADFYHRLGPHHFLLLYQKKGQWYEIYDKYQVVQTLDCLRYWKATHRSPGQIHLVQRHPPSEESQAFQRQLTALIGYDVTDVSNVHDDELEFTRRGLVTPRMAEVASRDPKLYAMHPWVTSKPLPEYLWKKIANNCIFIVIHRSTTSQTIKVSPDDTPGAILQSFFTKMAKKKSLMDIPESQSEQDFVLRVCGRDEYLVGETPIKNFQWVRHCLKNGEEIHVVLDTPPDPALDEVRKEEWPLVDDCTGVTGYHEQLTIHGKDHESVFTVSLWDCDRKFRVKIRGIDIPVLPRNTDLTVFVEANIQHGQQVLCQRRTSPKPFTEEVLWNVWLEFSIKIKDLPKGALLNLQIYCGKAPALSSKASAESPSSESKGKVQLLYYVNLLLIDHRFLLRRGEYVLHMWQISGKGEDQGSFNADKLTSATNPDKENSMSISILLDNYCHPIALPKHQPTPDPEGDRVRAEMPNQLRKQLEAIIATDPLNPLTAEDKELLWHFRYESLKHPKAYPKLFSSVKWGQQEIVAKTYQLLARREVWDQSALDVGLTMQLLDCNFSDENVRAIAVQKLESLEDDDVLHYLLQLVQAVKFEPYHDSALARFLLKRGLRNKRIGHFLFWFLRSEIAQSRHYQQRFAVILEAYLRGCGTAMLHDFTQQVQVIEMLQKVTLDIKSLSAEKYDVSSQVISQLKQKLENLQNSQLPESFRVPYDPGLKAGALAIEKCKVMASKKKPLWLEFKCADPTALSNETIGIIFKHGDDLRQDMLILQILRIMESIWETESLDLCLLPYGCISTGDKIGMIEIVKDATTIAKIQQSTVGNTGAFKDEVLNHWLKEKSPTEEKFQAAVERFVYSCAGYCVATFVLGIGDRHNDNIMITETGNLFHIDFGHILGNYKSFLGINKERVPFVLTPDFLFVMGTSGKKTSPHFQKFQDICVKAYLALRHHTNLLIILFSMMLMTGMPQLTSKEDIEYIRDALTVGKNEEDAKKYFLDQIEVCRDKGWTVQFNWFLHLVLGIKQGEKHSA

N#Cc1n[nH]c2ncnc(N3CCC[C@H]3c3nn4cccc4c(=O)n3-c3ccccc3)c12 [Compound 110, (S)-4-(2-(4-oxo-3-phenyl-3,4-dihydropyrrolo[1,2-f][1,2,4]triazin-2-yl)pyrrolidin-1-yl)-1H-pyrazolo[3,4-d]pyrimidine-3-carbonitrile]
PI3Kγ IH % @ 1 uM (p110γ): 38.7% | PI3Kδ IH % @ 1 uM (p110δ/p85α): 72.8% | PI3Kβ IH % @ 1 uM (p110β/p85α): 23.9%

N#Cc1ccn2nc([C@@H]3CCCN3c3ncnc4[nH]cnc34)n(-c3ccccc3)c(=O)c12 [Compound 112]
PI3Kγ IH % @ 1 uM (p110γ): 96.4% | IC50 (p110γ): 231 nM | PI3Kδ IH % @ 1 uM (p110δ/p85α): 94.6% | IC50 (p110δ/p85α): 26 nM | PI3Kβ IH % @ 1 uM (p110β/p85α): 34.5%

CC(Nc1ncnc2[nH]cc(C#N)c12)c1cc2cccn2c(=O)n1-c1ccccc1 (stereo not shown) [Compound 121]
PI3Kγ IH % @ 1 uM (p110γ): >100% | PI3Kδ IH % @ 1 uM (p110δ/p85α): 92.7% | PI3Kβ IH % @ 1 uM (p110β/p85α): 63.9%

O=c1c2c(Cl)ccn2nc([C@@H]2CC(F)(F)CN2c2ncnc3[nH]cnc23)n1Cc1ccccn1 [Compound 159]
PI3Kγ IH % @ 1 uM (p110γ): 20.4% | PI3Kδ IH % @ 1 uM (p110δ/p85α): 85.0% | IC50 (p110δ/p85α): 127 nM | PI3Kβ IH % @ 1 uM (p110β/p85α): 32.8%

C[S+]([O-])c1c[nH]c2ncnc(N3CCC[C@H]3c3nn4ccc(Cl)c4c(=O)n3-c3ccccc3)c12 (stereo partly shown) [Compound 188]
IC50 (p110γ): 17 nM | IC50 (p110δ/p85α): 5 nM | IC50 (p110β/p85α): 741 nM

O=c1c2c(F)ccn2nc([C@@H]2CCCN2c2ncnc3[nH]cnc23)n1-c1cccc(F)c1 [Compound 191]
IC50 (PI3Kγ): 54 nM

CC(=O)c1cnc(N)nc1N1C[C@H](C)[C@H]1c1nn2ccc(Cl)c2c(=O)n1-c1ccc(F)cc1 [Compound 206]
IC50 (PI3Kγ): 5 nM

N#Cc1cnc(N)nc1N1CCC[C@H]1c1nn2ccc(Cl)c2c(=O)n1-c1ccccc1 [Compound 207]
IC50 (PI3Kγ): 22 nM

N#Cc1c[nH]c2ncnc(N3C[C@@H](F)C[C@H]3c3nn4ccc(Cl)c4c(=O)n3-c3cccc(F)c3)c12 [Compound 213]
IC50 (PI3Kγ): 2 nM

O=c1c2c(Cl)ccn2nc([C@@H]2C[C@H](F)CN2c2ncnc3[nH]cnc23)n1-c1cccc(F)c1 [Compound 214]
IC50 (PI3Kγ): 15 nM

CC(=O)c1c[nH]c2ncnc(N3CCC[C@H]3c3nn4ccc(F)c4c(=O)n3-c3ccccc3)c12 [Compound 218]
IC50 (PI3Kγ): 42 nM

N#Cc1cnc(N)nc1N1C[C@@H](F)C[C@H]1c1nn2ccc(Cl)c2c(=O)n1-c1ccccc1 [Compound 229]
IC50 (PI3Kγ): 11 nM

N#Cc1cnc(N)nc1N1CCC[C@H]1c1nn2ccc(Cl)c2c(=O)n1-c1ccc(F)cc1 [Compound 231]
IC50 (PI3Kγ): 15 nM

N#Cc1cnc(N)nc1N1CCC[C@H]1c1nn2ccc(Cl)c2c(=O)n1-c1cccc(F)c1 [Compound 232]
IC50 (PI3Kγ): 44 nM

C[C@H]1CCN(c2ncnc3[nH]cc(C#N)c23)C1c1nn2ccc(Cl)c2c(=O)n1-c1ccccc1 (stereo partly shown) [Compound 233]
IC50 (p110γ): 13 nM | IC50 (p110δ/p85α): 4 nM | IC50 (p110β/p85α): 26 nM

C[C@H]1CCN(c2ncnc3[nH]cnc23)C1c1nn2ccc(Cl)c2c(=O)n1-c1ccccc1 (stereo partly shown) [Compound 234]
IC50 (p110γ): 12 nM | IC50 (p110δ/p85α): 2 nM | IC50 (p110β/p85α): 50 nM

Nc1nc2c(c(N3CC[C@H]3c3nn4ccc(Cl)c4c(=O)n3-c3ccccc3)n1)C(=O)CCN2 [Compound 241]
IC50 (PI3Kγ): 22 nM

Nc1nc2c(c(N3CCC[C@H]3c3nn4ccc(Cl)c4c(=O)n3-c3ccccc3)n1)C(=O)CCN2 [Compound 242]
IC50 (PI3Kγ): 21 nM

O=c1c2c(Cl)ccn2nc([C@@H]2CCCN2c2ncnc3[nH]cnc23)n1CC1CC1 [Compound 256]
PI3Kγ IH % @ 1 uM (p110γ): >100% | IC50 (p110γ): 82 nM | PI3Kδ IH % @ 1 uM (p110δ/p85α): 97.5% | IC50 (p110δ/p85α): 6 nM | PI3Kβ IH % @ 1 uM (p110β/p85α): 68.1%

CC(=O)c1c[nH]c2ncnc(N3C[C@@H](F)C[C@H]3c3nn4ccc(Cl)c4c(=O)n3-c3ccccc3)c12 [Compound 268]
PI3Kγ IH % @ 1 uM (p110γ): 100% | IC50 (PI3Kγ): 19 nM

CC(Nc1ncnc2[nH]cc(F)c12)c1cn2ccc(Cl)c2c(=O)n1-c1ccccc1 (stereo not shown) [Compound 270]
IC50 (PI3Kγ): 65 nM

CC(=O)c1c[nH]c2ncnc(NC(C)c3cn4ccc(Cl)c4c(=O)n3-c3ccccc3)c12 (stereo not shown) [Compound 272]
IC50 (PI3Kγ): 36 nM

CC(=O)c1cnc(N)nc1NC(C)c1cn2ccc(Cl)c2c(=O)n1-c1ccccc1 (stereo not shown) [Compound 273]
IC50 (PI3Kγ): 3 nM

Cc1nc(N)nc(N2CC[C@H]2c2nn3ccc(Cl)c3c(=O)n2-c2ccccc2)c1C#N [Compound 283]
IC50 (PI3Kγ): 3 nM

CC(Nc1ncnc2[nH]cc(F)c12)c1cc2ncc(Cl)n2c(=O)n1-c1ccccc1 (stereo not shown) [Compound 285]
IC50 (PI3Kγ): 46 nM

CC(=O)c1cnc(N)nc1NC(C)c1cc2ncc(Cl)n2c(=O)n1-c1ccccc1 (stereo not shown) [Compound 288]
IC50 (PI3Kγ): 43 nM

CC(=O)c1cnc(N)nc1N1CC[C@H]1c1nn2ccc(Cl)c2c(=O)n1-c1ccccc1 [Compound 299]
IC50 (PI3Kγ): 6 nM

CC(=O)c1cnc(N)nc1N1CC[C@H]1c1nn2ccc(Cl)c2c(=O)n1-c1ccc(F)cc1 [Compound 302]
IC50 (PI3Kγ): 43 nM

O=c1c2c(Cl)ccn2nc([C@@H]2CCCN2c2ncnc3[nH]cnc23)n1-c1ccccn1 [Compound 311]
IC50 (PI3Kγ): 54 nM | IC50 (p110δ/p85α): < 0.5 nM

CC(=O)c1cnc(N)nc1N1CCCC1c1cn2ccc(Cl)c2c(=O)n1-c1ccccc1 (stereo not shown) [Compound 321]
IC50 (PI3Kγ): 9 nM

CC(=O)c1cnc(N)nc1N1CC[C@H]1c1nn2ccc(F)c2c(=O)n1-c1ccccc1 [Compound 323]
IC50 (PI3Kγ): 80 nM

CC(=O)c1cnc(N)nc1N1C[C@H](C)[C@H]1c1nn2ccc(F)c2c(=O)n1-c1ccccc1 [Compound 324]
IC50 (PI3Kγ): 63 nM

CC(=O)c1c[nH]c2ncnc(N3CCC[C@H]3c3nn4ccc(Cl)c4c(=O)n3-c3ccccn3)c12 [Compound 340]
IC50 (PI3Kγ): 45 nM

N#Cc1cnc(N)nc1N1C[C@@H](C#N)C[C@H]1c1nn2ccc(Cl)c2c(=O)n1-c1ccccc1 [Compound 351]
IC50 (PI3Kγ): 5 nM

N#Cc1c[nH]c2ncnc(N3CCCC3c3cn4ccc(Cl)c4c(=O)n3-c3ccccc3)c12 (stereo not shown) [Compound 364]
IC50 (PI3Kγ): 6 nM

CC(=O)c1cnc(N)nc1N1CCC[C@H]1c1nn2ccc(Cl)c2c(=O)n1-c1ccccc1 [Compound 369, (S)-2-(1-(5-acetyl-2-aminopyrimidin-4-yl)pyrrolidin-2-yl)-5-chloro-3-phenylpyrrolo[2,1-f][1,2,4]triazin-4(3H)-one]
IC50 (PI3Kγ): 22 nM

N#Cc1cnc(N)nc1N1CCC1c1nn2ccc(Cl)c2c(=O)n1CC1CC1 (stereo not shown) [Compound 373]
IC50 (p110γ): 361 nM | IC50 (p110δ/p85α): 27 nM | IC50 (p110β/p85α): > 1000 nM

N#Cc1c[nH]c2ncnc(N3CC(=O)C[C@H]3c3nn4ccc(Cl)c4c(=O)n3-c3ccccc3)c12 [Compound 380, (S)-4-(2-(5-chloro-4-oxo-3-phenyl-3,4-dihydropyrrolo[2,1-f][1,2,4]triazin-2-yl)-4-oxopyrrolidin-1-yl)-7H-pyrrolo[2,3-d]pyrimidine-5-carbonitrile]
IC50 (PI3Kγ): 19 nM

N#Cc1cnc(N)nc1N1CC(=O)C[C@H]1c1nn2ccc(Cl)c2c(=O)n1-c1ccccc1 [Compound 403]
IC50 (PI3Kγ): 11 nM

Source: US20150291593A1, “NOVEL HETEROARYL AND HETEROCYCLE COMPOUNDS, COMPOSITIONS AND METHODS” (HUTCHISON MEDIPHARMA LIMITED, priority 2012, published 2015)
